Assay results as given in the NIST ThermoML archive (doi:10.1016/j.jct.2016.06.001).

Conditions: Liquid, Frequency=8 MHz, Pulse-echo method

CC(C)O [propan-2-ol]
Conditions	speed of sound [m/s]
253.15 K, 99 kPa	1301
253.15 K, 5138 kPa	1328.8
253.15 K, 10106 kPa	1354.9
253.15 K, 15136 kPa	1380
253.15 K, 20143 kPa	1404
253.15 K, 25229 kPa	1427.5
253.15 K, 30036 kPa	1448.9
273.15 K, 100 kPa	1227.9
273.15 K, 5275 kPa	1258.8
273.15 K, 10173 kPa	1286.4
273.15 K, 15164 kPa	1313.3
273.15 K, 20289 kPa	1339.6
273.15 K, 25102 kPa	1363.3
273.15 K, 30264 kPa	1387.7
293.15 K, 100 kPa	1157.4
293.15 K, 5085 kPa	1189.7
293.15 K, 10183 kPa	1220.8
293.15 K, 15273 kPa	1250.2
293.15 K, 20239 kPa	1277.4
293.15 K, 25220 kPa	1303.6
293.15 K, 30278 kPa	1328.9
313.15 K, 100 kPa	1087.2
313.15 K, 5177 kPa	1123.1
313.15 K, 10104 kPa	1155.7
313.15 K, 15187 kPa	1187.5
313.15 K, 20126 kPa	1216.6
313.15 K, 25138 kPa	1244.7
313.15 K, 30110 kPa	1271.1
333.15 K, 100 kPa	1016
333.15 K, 5048 kPa	1054.5
333.15 K, 10038 kPa	1090.6
333.15 K, 15065 kPa	1124.6
333.15 K, 20102 kPa	1156.5
333.15 K, 25093 kPa	1186.4
333.15 K, 30014 kPa	1214.4
353.15 K, 100 kPa	940.5
353.15 K, 5080 kPa	983.88
353.15 K, 10091 kPa	1023.9
353.15 K, 15114 kPa	1060.8
353.15 K, 20132 kPa	1095.3
353.15 K, 25164 kPa	1127.6
353.15 K, 30380 kPa	1159.2

OCCCO [propan-1,3-diol]
Conditions	speed of sound [m/s]
293.15 K, 100 kPa	1635.2
293.15 K, 5030 kPa	1650
293.15 K, 10062 kPa	1664.6
293.15 K, 15066 kPa	1678.9
293.15 K, 20096 kPa	1692.9
293.15 K, 24997 kPa	1706.3
293.15 K, 30029 kPa	1719.9
313.15 K, 99 kPa	1589.5
313.15 K, 5048 kPa	1605.1
313.15 K, 10031 kPa	1620.3
313.15 K, 15138 kPa	1635.4
313.15 K, 20064 kPa	1649.8
313.15 K, 25191 kPa	1664.4
313.15 K, 30167 kPa	1678.3
333.15 K, 100 kPa	1544.1
333.15 K, 5058 kPa	1560.3
333.15 K, 10054 kPa	1576.2
333.15 K, 15024 kPa	1591.7
333.15 K, 20153 kPa	1607.2
333.15 K, 25135 kPa	1622
333.15 K, 30136 kPa	1636.6
353.15 K, 101 kPa	1497.6
353.15 K, 5038 kPa	1514.6
353.15 K, 10023 kPa	1531.3
353.15 K, 15089 kPa	1547.8
353.15 K, 20158 kPa	1563.9
353.15 K, 25109 kPa	1579.3
353.15 K, 30076 kPa	1594.4

CCC(C)O (configuration not stated) [butan-2-ol]
Conditions	speed of sound [m/s]
253.15 K, 100 kPa	1374.6
253.15 K, 5155 kPa	1400.3
253.15 K, 10194 kPa	1424.8
253.15 K, 15178 kPa	1448.1
253.15 K, 20139 kPa	1470.5
253.15 K, 25051 kPa	1491.9
253.15 K, 30449 kPa	1514.4
273.15 K, 100 kPa	1301.2
273.15 K, 5150 kPa	1329.2
273.15 K, 10187 kPa	1355.8
273.15 K, 15226 kPa	1381.1
273.15 K, 20096 kPa	1404.6
273.15 K, 25052 kPa	1427.7
273.15 K, 30040 kPa	1450
293.15 K, 102 kPa	1229.1
293.15 K, 5048 kPa	1258.9
293.15 K, 10078 kPa	1287.7
293.15 K, 15045 kPa	1314.6
293.15 K, 20093 kPa	1340.9
293.15 K, 25164 kPa	1366
293.15 K, 29995 kPa	1389
313.15 K, 100 kPa	1156.3
313.15 K, 5081 kPa	1189.2
313.15 K, 10051 kPa	1220
313.15 K, 15034 kPa	1249.2
313.15 K, 20050 kPa	1277.2
313.15 K, 25148 kPa	1304.3
313.15 K, 30041 kPa	1329.3
333.15 K, 101 kPa	1081.4
333.15 K, 5111 kPa	1117.8
333.15 K, 10069 kPa	1151.4
333.15 K, 15039 kPa	1183
333.15 K, 20109 kPa	1213.5
333.15 K, 25122 kPa	1242.1
333.15 K, 30086 kPa	1269.2
353.15 K, 119 kPa	1003.7
353.15 K, 5050 kPa	1043.6
353.15 K, 10149 kPa	1081.5
353.15 K, 15213 kPa	1116.5
353.15 K, 20040 kPa	1147.9
353.15 K, 25218 kPa	1179.7
353.15 K, 30032 kPa	1207.7
